Measured values reported in US5571820A, “Heterocyclic compound” (Taisho Pharmaceutical Co., Ltd., priority 1992, dated 1996).

Assays:
[1] = test system: gastrointestinal motor functions; conditions: Alimentary Pharmacology and Therapeutics, 6, 273, 1992; cited from earlier work
serotonin 4 receptor [2] = conditions: Alimentary Pharmacology and Therapeutics, 6, 273, 1992; cited from earlier work
serotonin 4 receptor [3] = target: T1, serotonin 4 receptor (Cavia porcellus, UniProt O70528); assay: Serotonin 4 receptor stimulating activity: twitch responses of electrically stimulated ileum longitudinal muscle strips; type: cell-based, guinea pig (Hartley); conditions: for EC50: twitch responses, guinea pig ileum longitudinal muscle strips, cumulative additions of agonist, read-out: ED50 of the serotonin 4 receptor stimulating activity
T1 construct: from tissue; host or cells: ileum longitudinal muscle strips of Hartley guinea pig
T1 sequence (O70528 whole entry): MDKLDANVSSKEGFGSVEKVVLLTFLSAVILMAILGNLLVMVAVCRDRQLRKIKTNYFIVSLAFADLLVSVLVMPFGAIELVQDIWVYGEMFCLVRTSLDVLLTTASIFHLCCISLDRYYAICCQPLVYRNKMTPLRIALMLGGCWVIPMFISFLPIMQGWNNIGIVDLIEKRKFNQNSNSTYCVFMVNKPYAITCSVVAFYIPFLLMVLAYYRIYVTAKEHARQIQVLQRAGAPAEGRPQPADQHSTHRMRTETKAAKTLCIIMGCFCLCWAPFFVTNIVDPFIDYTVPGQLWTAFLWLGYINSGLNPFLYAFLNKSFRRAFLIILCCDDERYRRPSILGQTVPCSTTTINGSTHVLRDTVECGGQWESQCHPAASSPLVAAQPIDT
Text: Experiment 1. Serotonin 4 Receptor Stimulating Activity Compounds Tested
Twitch responses were examined in longitudinal muscle strips of guinea pig by a modification of the method described in The Journal of Pharmacology and Experimental Therapeutics, 252, 1378, 1990.
From Hartley guinea pigs, a section of ileum 25 cm in length and proximal to the ileocecal junction was removed. The longitudinal muscle strips obtained from two segments of ileum about 4 cm each in length were used for this experiment. The longitudinal muscle strips were suspended in Krebs' solution at 32° to 34° C. and bubbled with 95% O2 and 5% CO2 under a load of about 0.8 g. Twitch responses were recorded under electrical stimulation of 0.2 Hz, 1 msec pulse duration, using force displacement transducers. The longitudinal muscle strips, stimulated at supramaximal voltage, were allowed to equilibrate for about an hour. […] The test was carried out by exposing the strips to cumulative additions of agonist at least at 45-minute intervals.

SMILES | EC50 (serotonin 4 receptor [3]) | further results
COc1cc(N)c(Cl)cc1C(=O)NC1CCN2CCCC1C2 (centres unmarked) [renzapride] |  | effect on gastrointestinal motor functions and conditions [1]: accelerate gastrointestinal motor functions and improve gastrointestinal conditions; stimulation of serotonin 4 receptor (serotonin 4 receptor [2]): stimulants of serotonin 4 receptor
CCCCn1c(=O)c(C(=O)N[C@H]2C[C@H]3CC[C@@H](C2)N3C)c(O)c2ccccc21 [Compound 7] | > 3000 nM | 
CCn1c(=O)c(C(=O)N[C@H]2C[C@H]3CC[C@@H](C2)N3C)cc2ccccc21 [Compound 2] | 138 nM | 
CC(C)Cn1c(=O)c(C(=O)N[C@H]2C[C@H]3CC[C@@H](C2)N3C)cc2ccccc21 [Compound 5] | 974 nM | 
CCCCn1c(=O)c(C(=O)N[C@H]2C[C@H]3CC[C@@H](C2)N3C)cc2ccccc21 [Compound 4] | > 3000 nM | 
CN1[C@@H]2CC[C@H]1C[C@@H](NC(=O)c1cc3ccccc3[nH]c1=O)C2 [Compound 6] | > 3000 nM | 
CCCn1c(=O)c(C(=O)N[C@H]2C[C@H]3CC[C@@H](C2)N3C)cc2ccccc21 [Compound 3] | 413 nM | 
COc1cc(N)c(Cl)cc1C(=O)NC1CCN(CCCOc2ccc(F)cc2)CC1OC (centres unmarked) [Cisapride] |  | effect on gastrointestinal motor functions and conditions [1]: accelerate gastrointestinal motor functions and improve gastrointestinal conditions; stimulation of serotonin 4 receptor (serotonin 4 receptor [2]): stimulants of serotonin 4 receptor
NCCc1c[nH]c2ccc(O)cc12 [5-hydroxytryptamine (5-HT), 5-hydroxytryptamine] |  | enhancement of twitch responses (serotonin 4 receptor [3]; 10^-8 M): twitch responses were enhanced
